Data reported in US5512549A, “Glucagon-like insulinotropic peptide analogs, compositions, and methods of use” (Eli Lilly and Company, priority 1994, dated 1996).

Key:
beagles = assay: Dog S.C. Hyperglycemic (150 mg/dl) Clamp Test; assay type: in vivo; settings: S.C. 10 μg/kg; for GIR Change AUC / Insulin Change AUC: 0-120 min; for GIR Change AUC / Insulin Change AUC / Max Insulin Change: mean ± SEM; for Max Insulin Change: 120 minute test period; for Duration of Insulin Effect: time average insulin change consistently >0.5 ng/ml
Experimental: a) Hyperglycemic Clamp Studies
Experiments were conducted in overnight-fasted, conscious, adult (1-2 years of age) male and female beagles weighing 8-15 kg. At least ten days prior to the study, animals were anesthetized with isoflurane, and a cut-down was made in the left or right inguinal region. Silastic catheters were inserted into the femoral artery and the proximal caudal femoral vein and secured with 4-0 silk suture. The free ends of the catheters were passed subcutaneously to the back using a trocar needle. The catheters were then filled with a glycerol/heparin solution (3:1, v/v; final heparin concentration of 250 KIU/ml), and the free ends were knotted and placed in a subcutaneous pocket to allow complete closure of the skin. Keflex® was administered both pre-operatively (20 mg/kg, IV and 20 mg/kg, I.M.) and post-operatively (250 mg, p.o. once daily for seven days) to prevent infections. Torbugesic (1.5 mg/kg, I.M.) was administered post-operativelyto control pain.
Blood was drawn just prior to the study day to determine the health of the animal. Only animals with hematocrits above 38% and leukocyte counts below 16,000/mm^3 were used.
The afternoon before the experiment, the free ends of the catheters were exteriorized from the subcutaneous pocket through a small incision made under local anesthesia (2% lidocaine), and the dog was fitted with a tether system jacket and collar assembly.
The morning of the experiment, the contents of the catheters were aspirated, the catheters were flushed with saline, and extension lines (protected by a stainless steel tether) were attached to the catheters. On mornings of IV injection experiments, an over-the-needle, teflon catheter was inserted percutaneously into a cephalic vein in preparation for the administration of an IV bolus of test substance. The dog was placed in a metabolic cage, and the catheter extension lines and tether were attached to a swivel system to allow the dog to move freely about the cage. At this time (-60 minutes), an exogenous infusion of glucose (50% w/v in water) was begun through the chronic venous catheter. Glucose was infused in a descending stepwise fashion over the first six minutes of the study to rapidly raise the plasma glucose concentration to 150 mg/dl. Plasma glucose concentrations were determined every 2.5 to 7.5 minutes throughout the remainder of the study, and the glucose infusion rate was adjusted appropriately to maintain the plasma glucose concentration at 150 mg/dl.
Sixty minutes after the start of the glucose infusion (time 0), test substance was administered either intravenously (1.0, 2.9, 5.0 or 10.0 μg/kg; dose dissolved in 2 ml of saline containing 0.3% dog albumin, w/v) through the previously inserted teflon catheter or subcutaneously (10 μg/kg; 150 μM in phosphate buffered saline) in the dorsal aspect of the neck.
Arterial blood samples (3.5 ml) were taken at -30, -15, 0, 2.5, 5, 7.5, 10, 12.5, 15, 20, 30, 45, 60, 75, 90, 105 and 120 minutes during the IV studies and at -30, -15, 0, 3, 6, 9, 12, 15, 20, 30, 45, 60, 75, 90, 105 and 120 minutes during the SC studies. Samples were collected in vacuum blood collection tubes containing disodium EDTA and immediately placed on ice. To prevent proteolytic cleavage of GLP-1(7-37) in the plasma samples, 1.5 ml of the EDTA containing blood were transferred to a polypropylene tube containing 40 μl of aprotinin (10,000 KIU/ml) and mixed well. The samples were centrifuged, and the resulting plasma was transferred to polypropylene test tubes and stored on ice for the duration of the study.
At the conclusion of the experiment, the animal was anesthetized (isoflurane); the catheters were flushed with fresh saline and filled with the glycerol/heparin mixture; the free ends of the catheters were knotted and placed subcutaneously as described earlier; and antibiotic was administered (300 mg Keflex®, I.M.). […]

Sprague Dawley rats = assay: Rat I.V. Hyperglycemic (150 mg/dl) Clamp Test; assay type: in vivo; settings: for Insulin Change AUC: 0-15 min; for GIR Change AUC: 0-30 min; for Max Insulin Change: 90 minute test period; for Duration of Insulin Effect: time average insulin change >0 ng/ml
Experimental: b) Hyperglycemic Clamp Studies
Experiments were conducted in chronically catheterized, normal, male Sprague Dawley rats weighing about 350 grams. At least a week prior to studies, surgery was performed on the rats under isoflurane anesthesia. Two catheters were implanted into the jugular vein for infusions of glucose and peptide and one catheter into the carotid artery for blood sampling. The catheters were exteriorized through the skin at the vertex of the head, filled with glycerol/heparin solution (3:1,v/v) and closed off with a one centimeter stainless steel plug. Animals were housed individually in wire mesh cages and allowed free access to standard rat chow diet and water.
Catheterized rats were fasted overnight prior to studies. On the morning of the experiment, rats were weighed and sampling tubings connected to their indwelling catheters. The tubings were enclosed in a light weight stainless steel spring for protection. During the study, rats were kept unrestrained in a plastic shoe box cage (12"×10"×12") with about one inch of bedding. After 15 minutes of acclimation, a basal sample was taken for measurement of insulin and glucose levels. At time -60 minutes, rats were given a bolus of 20% dextrose to raise plasma glucose to 150 mg/dl. The plasma glucose concentration was maintained at this level for the duration of the study by measuring the plasma glucose concentration every five minutes and adjusting the calibrated variable infusion pump accordingly. Blood samples were collected at -15 and 0 minutes for baseline measurements. Immediately after taking the zero minute sample, peptide (130-155 μM stock concentration, diluted in phosphate buffered saline) was injected via the jugular vein catheter and flushed with saline. Blood samples were taken for glucose and insulin determinations at 2, 4, 6, 8, 10, 12, 15, 20, 25, 30, 40, 50, 60, 70, 80, and 90 minutes. All blood samples were collected into syringes coated with sodium heparin, transferred into micro centrifuge tubes and placed on ice. Blood samples were then centrifuged in a micro centrifuge to separate the plasma component.
Plasma glucose levels were determined on the day of the study by the glucose oxidase method using the Beckman Glucose Analyzer 2, while the insulin concentrations were measured by a commercial kit (Diagnostic Products Corporation) with rat insulin standard.
Insulin change (the change in insulin from the baseline value) was calculated as the difference between the insulin concentration at time t and the average insulin concentration prior to injection of test substance. The area under the insulin change curve was calculated using the trapezoidal rule. Glucose infusion rate change (the percent change in the glucose infusion rate from the baseline value) was calculated as the difference between the glucose infusion rate value at time t and the average glucose infusion rate prior to injection of test substance, divided by the average glucose infusion rate prior to injection of test substance, times 100. The area under the glucose infusion rate change curve was calculated on the absolute glucose infusion rate change values (calculated as the difference between the glucose infusion rate value at time t and the glucose infusion rate prior to injection of test substance) using the trapezoidal rule. Values are listed as the mean ± the standard error of the mean (SEM).

Lys^34 -N^ε -octanoyl-GLP-1(7-37)OH [Lys^34-N^ε-octanoyl-GLP-1(7-37)OH]
GIR Change AUC (beagles): 532 ± 112 mg/kg
Insulin Change AUC (beagles): 29 ± 8 ng·min/mL
Max Insulin Change (beagles): 0.6 ± 0.3 ng/mL
Duration of Insulin Effect (beagles): not active
Insulin Change AUC (Sprague Dawley rats; I.V. 1.0 μg/kg): 13.2 ng·min/mL
GIR Change AUC (Sprague Dawley rats; I.V. 1.0 μg/kg): 132 mg/kg
Max Insulin Change (Sprague Dawley rats; I.V. 1.0 μg/kg): 2.4 ± 0.8 ng/mL
Duration of Insulin Effect (Sprague Dawley rats; I.V. 1.0 μg/kg): 4 min

GLP-1(7-37)OH
GIR Change AUC (beagles): 696 ± 145 mg/kg
Insulin Change AUC (beagles): 64 ± 33 ng·min/mL
Max Insulin Change (beagles): 1.6 ± 0.8 ng/mL
Duration of Insulin Effect (beagles): 27 min
Insulin Change AUC (Sprague Dawley rats; I.V. 0.05 μg/kg): 3.0 ± 1.6 ng·min/mL
GIR Change AUC (Sprague Dawley rats; I.V. 0.05 μg/kg): 48 ± 22 mg/kg
Max Insulin Change (Sprague Dawley rats; I.V. 0.05 μg/kg): 1.6 ± 0.3 ng/mL
Duration of Insulin Effect (Sprague Dawley rats; I.V. 0.05 μg/kg): 6 min
Insulin Change AUC (Sprague Dawley rats; I.V. 0.1 μg/kg): 7.3 ± 2.8 ng·min/mL
GIR Change AUC (Sprague Dawley rats; I.V. 0.1 μg/kg): 150 mg/kg
Max Insulin Change (Sprague Dawley rats; I.V. 0.1 μg/kg): 3.6 ± 1.2 ng/mL
Duration of Insulin Effect (Sprague Dawley rats; I.V. 0.1 μg/kg): 6 min
Insulin Change AUC (Sprague Dawley rats; I.V. 0.2 μg/kg): 5.8 ± 0.9 ng·min/mL
GIR Change AUC (Sprague Dawley rats; I.V. 0.2 μg/kg): 154 mg/kg
Max Insulin Change (Sprague Dawley rats; I.V. 0.2 μg/kg): 2.8 ± 0.1 ng/mL
Duration of Insulin Effect (Sprague Dawley rats; I.V. 0.2 μg/kg): 6 min
Insulin Change AUC (Sprague Dawley rats; I.V. 0.6 μg/kg): 14.9 ng·min/mL
GIR Change AUC (Sprague Dawley rats; I.V. 0.6 μg/kg): 151 mg/kg
Max Insulin Change (Sprague Dawley rats; I.V. 0.6 μg/kg): 4.9 ± 1.3 ng/mL
Duration of Insulin Effect (Sprague Dawley rats; I.V. 0.6 μg/kg): 6 min
Insulin Change AUC (Sprague Dawley rats; I.V. 1.0 μg/kg): 16.7 ng·min/mL
GIR Change AUC (Sprague Dawley rats; I.V. 1.0 μg/kg): 131 mg/kg
Max Insulin Change (Sprague Dawley rats; I.V. 1.0 μg/kg): 7.7 ± 0.8 ng/mL
Duration of Insulin Effect (Sprague Dawley rats; I.V. 1.0 μg/kg): 6 min
Insulin Change AUC (Sprague Dawley rats; I.V. 2.0 μg/kg): 11.5 ng·min/mL
GIR Change AUC (Sprague Dawley rats; I.V. 2.0 μg/kg): 152 mg/kg
Max Insulin Change (Sprague Dawley rats; I.V. 2.0 μg/kg): 3.6 ± 0.9 ng/mL
Duration of Insulin Effect (Sprague Dawley rats; I.V. 2.0 μg/kg): 6 min
Insulin Change AUC (Sprague Dawley rats; I.V. 4.0 μg/kg): 10.4 ng·min/mL
GIR Change AUC (Sprague Dawley rats; I.V. 4.0 μg/kg): 139 mg/kg
Max Insulin Change (Sprague Dawley rats; I.V. 4.0 μg/kg): 2.0 ± 0.4 ng/mL
Duration of Insulin Effect (Sprague Dawley rats; I.V. 4.0 μg/kg): 40 min
